In patent publication US20030078190A1 (priority 2001, published 2003):
“And” between values parts separate entries of the source, which are not always exact repeats. Equal values may be shown once. “Also recorded” adds a separate entry of the source. Read-outs that look alike come from different tables or passages of the source. Marks after values point to notes of the source that are not given here.

Columns and labels:
[1] = system: patients with heavy proteinuria (>1.5 g/day); assay: Blood pressure, serum creatinine, serum potassium and tolerability during candesartan dose titration (Example 1); format: in vivo, human
Method: (§1) Ten older patients (67±10 years; 80% male) with heavy proteinuria (>1.5 g/day) were started on 16 or 32 mg of candesartan cilexetil daily. Several patients had renal biopsies performed. Eight patients had nephrotic syndrome, four of whom had diabetic nephropathy, two had focal sclerosis, one had membranous nephropathy, and one had postinfectious nephropathy. The two other patients had nephrosclerosis, one being extremely severe and associated with moderate interstitial disease. Most of the patients were already receiving multiple medications for optimal BP control which included the following: calcium channel blockers (CCBs, 80%), diuretics (70%), beta blockers (40%), alpha blockers (40%), and ACEI (40%). Additional concurrent medications included lipid-lowering agents, anti-ischemic drugs and hypoglycemic agents. No effort was made to standardize any class of medications other than ARBs, and no other controls, such as sodium restriction, were instituted as patients were treated using standard office practice procedures.
(§2) After 1-2 months of therapy, the dose of candesartan cilexetil was titrated upwards (at 16-32 mg dose increments) to 96 mg/d, while 24-hour urine samples were obtained to measure protein and creatinine. The candesartan doses were increased independently of the need for BP control. Subsequently, the effect of increased doses of candesartan on 24-hour urinary protein and creatinine excretion, BP, serum creatinine and potassium were serially measured.
(§3) Baseline data was utilized either prospectively or from past patient records collected close to the time of the clinical observation period. […] Thus, no statistical analysis was performed but general trends are noted.

[2] = system: patients with heavy proteinuria (>1.5 g/day); assay: 24-hour urinary protein excretion with high-dose candesartan cilexetil (Example 1); format: in vivo, human
Method: The optimal doses of ACEIs and/or ARBs for maximal reduction in urinary protein excretion are not known. Moreover, beneficial effects from ARBs, such as tissue protection owing to a more complete blockade of the RAAS, may be independent of blood pressure-lowering by ARBs. This investigation was designed to evaluate whether increasing the dose of candesartan cilexetil, in subjects already on the FDA's maximum recommended daily doses of 32 mg, would induce a further reduction in 24-hour urinary protein excretion in patients with heavy proteinuria (urinary protein excretion >1.5 g/day; mean 4.4±2 g/day).
as §1, §2, §3

[3] = system: patients with dilated aortic roots; assay: Aortic root size by M-mode echocardiography under ARB therapy (Example 10); format: in vivo, human
Text: Since regression of the aortic root dilatation on echocardiogram was so unusual, a study was undertaken to evaluate other individuals with aortic root dilatation to determine whether aortic root aneurysms or dilatation could be reduced using ARBs. […] In order to evaluate one group of homogeneous subjects, the following were inclusion criteria: (1) same modality of testing to determine the thickness of the aortic root; (2) same instrument; (3) same interpreter of echocardiogram; (4) subjects needed to be on medication (antihypertensive including ARB or ARB if normotensive); (5) at least 9 months of ARB therapy; and (6) the disease was strictly aneurysm, not CAD or CHF. Applying the above inclusion criteria, a group of 15 subjects was selected for analysis. The group included 13 men and 2 women, aged 66.4±13.3 years and weighing 188.8±29.6 pounds. Aortic root sizes were measured using M-mode echocardiography with a leading-edge-to-leading-edge measurement of the maximal distance between the anterior aortic root wall and the posterior aortic root wall, measured at a level immediately above the cusps at end diastole. The standard deviation for intra-observer error was ±2 mm. Interval changes in aortic root size were measured as initial value-most recent value, where a positive resulting value indicated a corresponding decrease in aortic root size over the interval.

hypertensive patients = conditions: cited from earlier work; for BP reductions in comparative short-term trials between ACEI and ARBs: in vivo
AT1 receptor = molecular target: T1, AT1 receptor (Homo sapiens, UniProt P30556); conditions: cited from earlier work
T1 sequence (P30556 1-359): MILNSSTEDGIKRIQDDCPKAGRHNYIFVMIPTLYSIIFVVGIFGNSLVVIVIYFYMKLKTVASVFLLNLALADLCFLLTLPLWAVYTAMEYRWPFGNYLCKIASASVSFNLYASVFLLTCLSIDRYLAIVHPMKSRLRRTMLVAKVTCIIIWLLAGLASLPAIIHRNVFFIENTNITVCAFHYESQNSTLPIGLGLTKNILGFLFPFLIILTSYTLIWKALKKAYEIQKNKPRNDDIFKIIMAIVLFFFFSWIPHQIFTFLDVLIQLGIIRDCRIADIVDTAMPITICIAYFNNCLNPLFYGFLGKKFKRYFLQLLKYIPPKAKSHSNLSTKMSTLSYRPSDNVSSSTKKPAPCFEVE

[4] = system: subjects with both diabetic and non-diabetic renal disease; assay: Preliminary unpublished observations: microalbuminuria under supramaximal ARB doses; format: in vivo, human
Text: Strategies to enhance blockade of the tissue RAAS may result in greater renoprotective effects, by further reducing intraglomerular hydrostatic pressure and glomerular hypertrophy, and providing additional improvements in glomerular permselectivity. […] Utilizing ARBs rather than ACEI was chosen owing to evidence that ARBs provide enhanced tissue RAAS blockade by prevention of the ACE escape phenomenon and thus more complete blockade of angiotensin II (AII) produced by both ACE and non-ACE pathways.

[5] = system: normotensive, proteinuric patients with IgA nephropathy; conditions: increasing dose of lisinopril; cited from earlier work
[6] = system: normotensive patients with IgA nephropathy; conditions: cited from earlier work
tissue ACE = tissue ACE (Homo sapiens, UniProt P12821); conditions: compared with other ACEI (e.g., enalapril); due to lipophilic properties; cited from earlier work
tissue ACE, sequence (P12821 30-1306): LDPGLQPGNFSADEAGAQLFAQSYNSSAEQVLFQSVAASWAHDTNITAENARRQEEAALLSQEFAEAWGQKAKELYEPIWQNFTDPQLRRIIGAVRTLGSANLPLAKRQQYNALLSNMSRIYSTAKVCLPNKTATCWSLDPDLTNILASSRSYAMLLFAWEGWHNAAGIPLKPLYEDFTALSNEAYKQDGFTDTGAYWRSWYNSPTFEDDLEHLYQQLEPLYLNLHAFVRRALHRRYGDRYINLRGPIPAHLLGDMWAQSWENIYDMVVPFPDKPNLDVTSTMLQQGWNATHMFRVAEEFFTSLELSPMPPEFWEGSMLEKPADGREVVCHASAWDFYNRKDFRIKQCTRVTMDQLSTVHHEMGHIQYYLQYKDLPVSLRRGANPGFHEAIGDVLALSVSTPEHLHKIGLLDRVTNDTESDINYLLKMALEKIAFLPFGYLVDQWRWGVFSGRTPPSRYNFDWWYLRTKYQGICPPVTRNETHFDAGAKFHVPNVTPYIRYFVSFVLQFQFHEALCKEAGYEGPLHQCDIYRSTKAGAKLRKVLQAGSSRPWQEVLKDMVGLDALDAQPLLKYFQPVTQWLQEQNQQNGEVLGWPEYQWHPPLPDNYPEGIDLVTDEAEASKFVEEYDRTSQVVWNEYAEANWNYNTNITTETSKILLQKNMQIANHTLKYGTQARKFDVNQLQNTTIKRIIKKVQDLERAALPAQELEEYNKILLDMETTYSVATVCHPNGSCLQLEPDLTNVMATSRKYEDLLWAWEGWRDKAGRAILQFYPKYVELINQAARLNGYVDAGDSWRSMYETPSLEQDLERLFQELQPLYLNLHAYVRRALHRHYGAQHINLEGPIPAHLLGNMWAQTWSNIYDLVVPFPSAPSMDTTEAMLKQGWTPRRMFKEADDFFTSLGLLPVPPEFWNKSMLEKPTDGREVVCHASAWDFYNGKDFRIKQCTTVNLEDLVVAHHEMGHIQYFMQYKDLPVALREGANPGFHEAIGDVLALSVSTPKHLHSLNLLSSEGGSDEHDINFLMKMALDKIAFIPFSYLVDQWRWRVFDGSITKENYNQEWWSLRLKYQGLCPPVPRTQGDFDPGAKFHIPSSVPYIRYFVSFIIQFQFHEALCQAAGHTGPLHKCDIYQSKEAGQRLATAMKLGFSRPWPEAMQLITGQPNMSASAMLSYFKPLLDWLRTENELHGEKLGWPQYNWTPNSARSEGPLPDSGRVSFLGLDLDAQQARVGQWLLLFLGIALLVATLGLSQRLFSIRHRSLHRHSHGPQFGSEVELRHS

CCOc1nc2cccc(C(=O)OC(C)OC(=O)OC3CCCCC3)c2n1Cc1ccc(-c2ccccc2-c2nnn[nH]2)cc1 (stereo not drawn) [Candesartan cilexetil, candesartan cilexetil]
Safety and tolerability ([1]; doses between 32 and 96 mg): safe, well-tolerated | Protein Excretion, Mean ([2]; 16 mg/day column, mean of N=4 (includes one losartan 50 mg and one irbesartan 150 mg value)): 2.8 g/day | Protein Excretion, Mean ([2]; 32 mg/day column, mean of N=10 (includes one irbesartan 300 mg value)): 2.7 g/day | Protein Excretion (24-hour urinary protein excretion rate) ([2]; candesartan cilexetil 16 mg/day, individual patients): 3.2 g/day and 6.4 g/day | Protein Excretion (24-hour urinary protein excretion rate) ([2]; candesartan cilexetil 32 mg/day, individual patients): 1.1 g/day and 2.0 g/day and 0.8 g/day and 4.9 g/day and 3.3 g/day and 2.7 g/day and 6.4 g/day and 4.6 g/day and 1.2 g/day | Protein Excretion (24-hour urinary protein excretion rate) ([2]; candesartan cilexetil 48 mg/day, individual patients): 0.9 g/day and 0.2 g/day (2×) and 2.6 g/day and 1.7 g/day and 2.9 g/day and 5.8 g/day and 1.2 g/day | Protein Excretion, Mean ([2]; candesartan cilexetil 48 mg/day, mean of N=8): 1.9 g/day | Protein Excretion (24-hour urinary protein excretion rate) ([2]; candesartan cilexetil 64 mg/day, individual patients): 1.7 g/day and 1.1 g/day and 0.4 g/day and 0.2 g/day and 1.3 g/day and 3.0 g/day and 4.7 g/day and 0.7 g/day | Protein Excretion, Mean ([2]; candesartan cilexetil 64 mg/day, mean of N=8): 1.6 g/day | Protein Excretion (24-hour urinary protein excretion rate) ([2]; candesartan cilexetil 80 mg/day, individual patients): 0.9 g/day and 0.5 g/day and 0.3 g/day and 1.6 g/day and 3.4 g/day and 1.4 g/day and 2.4 g/day and 0.6 g/day | Protein Excretion, Mean ([2]; candesartan cilexetil 80 mg/day, mean of N=8): 1.4 g/day | Protein Excretion (24-hour urinary protein excretion rate) ([2]; candesartan cilexetil 96 mg/day, individual patients): 0.6 g/day and 0.2 g/day and 1.8 g/day and 2.3 g/day and 0.7 g/day | Protein Excretion, Mean ([2]; candesartan cilexetil 96 mg/day, mean of N=5): 1.1 g/day | Effect on 24-hour urinary protein excretion beyond the recommended maximum dose ([2]; dose extended beyond 32 mg/d): progressive reductions in 24-hour urinary protein excretion; also recorded: further reductions in urinary protein excretion in all subjects

CCOc1nc2cccc(C(=O)O)c2n1Cc1ccc(-c2ccccc2-c2nnn[nH]2)cc1 [candesartan]
Tolerability ([1]; 96 mg/d): well tolerated, metabolically neutral | Increase in serum creatinine ([1]; at the higher doses of candesartan, attributable primarily to two of the ten patients): 0.5 to 0.7 mg/dL | Serum potassium ([1]; throughout the dosing range of candesartan): 4.3 to 4.5 mmol/L | Interval change in aortic root size (initial value minus most recent value) ([3]; one hypertensive subject, 128 mg/d): 8 mm | Interval change in aortic root size (initial value minus most recent value) ([3]; one normotensive subject, 64 mg/d): 12 mm | Decrease in aortic root size ([3]; ten of 15 subjects, at least 9 months of ARB therapy): more than 2 mm

CCOC(=O)[C@H](CCc1ccccc1)N[C@@H](C)C(=O)N1CCC[C@H]1C(=O)O [enalapril]
BP reductions in comparative short-term trials between ACEI and ARBs (hypertensive patients): equivalent BP reductions

CCCCc1ncc(/C=C(\Cc2cccs2)C(=O)O)n1Cc1ccc(C(=O)O)cc1 [eprosartan]
Affinity for the AT1 receptor (AT1 receptor): lower affinity | Type of antagonism at the AT1 receptor (AT1 receptor): surmountable

CCCCC1=NC2(CCCC2)C(=O)N1Cc1ccc(-c2ccccc2-c2nnn[nH]2)cc1 [irbesartan]
BP reductions in comparative short-term trials between ACEI and ARBs (hypertensive patients): equivalent BP reductions | Affinity for the AT1 receptor (AT1 receptor): high affinity | Type of antagonism at the AT1 receptor (AT1 receptor): insurmountable | Effect on microalbuminuria [4]: additional reductions in microalbuminuria | Protein Excretion (24-hour urinary protein excretion rate) ([2]; irbesartan 150 mg, patient 7): 0.5** g/day | Protein Excretion (24-hour urinary protein excretion rate) ([2]; irbesartan 300 mg, patient 6): 0.4^§ g/day

NCCCC[C@H](N[C@@H](CCc1ccccc1)C(=O)O)C(=O)N1CCC[C@H]1C(=O)O [lisinopril]
BP reductions in comparative short-term trials between ACEI and ARBs (hypertensive patients): equivalent BP reductions | Renal protective effect of increasing the dose [5]: additional renal protective effects, independent of any BP reductions

CCCCc1nc(Cl)c(CO)n1Cc1ccc(-c2ccccc2-c2nn[nH]n2)cc1 [losartan]
BP reductions compared with ACEI (hypertensive patients; a few studies): smaller BP reductions | BP reductions in comparative short-term trials between ACEI and ARBs (hypertensive patients): equivalent BP reductions | Antihypertensive response to add-on therapy (hypertensive patients; losartan 25-50 mg/d added to existing ramipril 2.5-5 mg/d, four-week study of 30 hypertensives): enhanced | Change of urinary protein excretion on monotherapy ([6]; either drug as monotherapy, ARB = losartan): −27% | Reduction of urinary protein excretion on combined ACEI and ARB therapy ([6]; losartan 50 mg/day added to a moderate dose of an ACEI): 69% | Type of antagonism at the AT1 receptor (AT1 receptor): surmountable | Type of antagonism at the AT1 receptor (AT1 receptor; listed as Losartan): competitive antagonist | Effect on microalbuminuria [4]: additional reductions in microalbuminuria | Protein Excretion (24-hour urinary protein excretion rate) ([2]; losartan 50 mg, patient 6): 1.1^+ g/day

CCOC(=O)[C@H](CCc1ccccc1)N[C@@H](C)C(=O)N1Cc2ccccc2C[C@H]1C(=O)O [quinapril]
Ability to block tissue ACE activity (tissue ACE): better able to block tissue ACE activity

CCOC(=O)[C@H](CCc1ccccc1)N[C@@H](C)C(=O)N1[C@H](C(=O)O)C[C@@H]2CCC[C@@H]21 [ramipril]
Additive antihypertensive response to add-on therapy (hypertensive patients; ACEI (ramipril) added to existing ARB (losartan) therapy): small and not significant

CCCc1nc2c(C)cc(-c3nc4ccccc4n3C)cc2n1Cc1ccc(-c2ccccc2C(=O)O)cc1 [telmisartan]
BP reductions in comparative short-term trials between ACEI and ARBs (hypertensive patients): equivalent BP reductions

CCCCC(=O)N(Cc1ccc(-c2ccccc2-c2nnn[nH]2)cc1)[C@H](C(=O)O)C(C)C [valsartan]
BP reductions in comparative short-term trials between ACEI and ARBs (hypertensive patients): equivalent BP reductions | Effect on microalbuminuria [4]: additional reductions in microalbuminuria
